The structures appear in SMILES notation. Where a name gives a salt, the structure may show the parent alone.

For the first assay, the target named is T1, MPO (purified from human polynuclear leukocytes) (Homo sapiens, UniProt P05164).
T1 construct: purified from human polynuclear leukocytes; purchased Calbiochem/EMD Biosciences; host or cells: human polynuclear leukocytes (natural source)
T1 sequence (P05164 279-745 limits assumed): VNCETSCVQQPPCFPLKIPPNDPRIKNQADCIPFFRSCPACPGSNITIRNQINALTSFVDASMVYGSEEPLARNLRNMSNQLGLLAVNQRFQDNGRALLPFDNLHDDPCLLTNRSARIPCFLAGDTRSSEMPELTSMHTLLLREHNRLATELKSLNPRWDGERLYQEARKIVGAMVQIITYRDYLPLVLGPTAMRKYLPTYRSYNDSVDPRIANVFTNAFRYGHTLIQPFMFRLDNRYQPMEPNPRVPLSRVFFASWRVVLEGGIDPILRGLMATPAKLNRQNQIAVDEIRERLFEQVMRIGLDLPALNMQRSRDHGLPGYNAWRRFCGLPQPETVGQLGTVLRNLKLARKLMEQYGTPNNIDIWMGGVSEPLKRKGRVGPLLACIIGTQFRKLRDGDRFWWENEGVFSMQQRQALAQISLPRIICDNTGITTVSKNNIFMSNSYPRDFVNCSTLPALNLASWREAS
T1 sequence (P05164 165-273 limits assumed): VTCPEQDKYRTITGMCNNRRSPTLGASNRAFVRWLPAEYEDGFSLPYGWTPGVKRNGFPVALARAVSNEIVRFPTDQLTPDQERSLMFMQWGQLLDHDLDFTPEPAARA
The assay can be described thus: MPO Amplex Red Activity Assay. Format: biochemical. Particulars: Table 1, 2 μM H2O2, pH 7.4. The essentials:
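Potency is given as kinact/KI: kobs values from 600 s progress curves, minus the uninhibited rate, are fit against inhibitor concentration. Reactions use 2 μM H2O2, 30 μM Amplex Red, pH 7.4 phosphate buffer with NaCl, DTPA and 2% DMSO, started with […] human MPO. Readout is resorufin fluorescence, catalase background subtracted.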
In the case of `CCOC(=O)C(C)n1c(-c2ccc(OC)cc2OC)cc(=O)[nH]c1=S` (centres unmarked) [Example 239, ethyl 2-[6-(2,4-dimethoxyphenyl)-4-oxo-2-thioxo-3,4-dihydropyrimidin-1(2H)-yl]propanoate], the “MPO kinact/Ki” value was 1850 1/s per M. The same measure, in the same setting: as for `COCCn1c(-c2cc(C)ccc2OC)cc(=O)[nH]c1=S` [Example 312, 1-(2-methoxyethyl)-6-(2-methoxy-5-methylphenyl)-2-thioxo-2,3-dihydropyrimidin-4(1H)-one], the figure is 17100 1/s per M; as for `COc1ccc(-c2cc(=O)[nH]c(=S)n2CCN)c(OC)c1` [Example 6, 1-(2-aminoethyl)-6-(2,4-dimethoxyphenyl)-2-thioxo-2,3-dihydropyrimidin-4(1H)-one hydrochloride], 12900 1/s per M; as for `COCCn1c(-c2cccnc2OC)cc(=O)[nH]c1=S` [Example 23, 1-(2-methoxyethyl)-6-(2-methoxypyridin-3-yl)-2-thioxo-2,3-dihydropyrimidin-4(1H)-one], 991 1/s per M. Regarding `COCCn1c(-c2coc3ccccc23)cc(=O)[nH]c1=S` [Example 305, 6-(1-benzofuran-3-yl)-1-(2-methoxyethyl)-2-thioxo-2,3-dihydropyrimidin-4(1H)-one], the “MPO kinact/Ki” value was 6370 1/s per M. On the same count and under the same terms, as for `COc1cc(OC)cc(-c2cc(=O)[nH]c(=S)n2CC(N)=O)c1` [Example 86, 2-[6-(3,5-dimethoxyphenyl)-4-oxo-2-thioxo-3,4-dihydropyrimidin-1(2H)-yl]acetamide], the figure is 3960 1/s per M; as for `COc1cc(OC)c(-c2cc(=O)[nH]c(=S)n2CCN=C(N)N)cc1OC` [Example 138, 2-{2-[4-oxo-2-thioxo-6-(2,4,5-trimethoxyphenyl)-3,4-dihydropyrimidin-1(2H)-yl]ethyl}guanidine hydrochloride], 4530 1/s per M; as for `COc1ccc(-c2cc(=O)[nH]c(=S)n2CCOCC(=O)O)c(OC)c1` [Example 246, {2-[6-(2,4-dimethoxyphenyl)-4-oxo-2-thioxo-3,4-dihydropyrimidin-1(2H)-yl]ethoxy}acetic acid], 246 1/s per M.

On to `COc1ccccc1-c1cc(=O)[nH]c(=S)n1CCN=C(N)N` [Example 77, 2-{2-[6-(2-methoxyphenyl)-4-oxo-2-thioxo-3,4-dihydropyrimidin-1(2H)-yl]ethyl}guanidine hydrochloride], for which the “MPO kinact/Ki” value is on record as 6660 1/s per M.

For `COCCn1c(-c2ccco2)cc(=O)[nH]c1=S` [Example 277, 6-(2-furyl)-1-(2-methoxyethyl)-2-thioxo-2,3-dihydropyrimidin-4(1H)-one], the “MPO kinact/Ki” value is recorded as 767 1/s per M.

Take `COCCn1c(-c2cccc(S(C)(=O)=O)c2)cc(=O)[nH]c1=S` [Example 109, 1-(2-methoxyethyl)-6-[3-(methylsulfonyl)phenyl]-2-thioxo-2,3-dihydropyrimidin-4(1H)-one]: the “MPO kinact/Ki” value was 914 1/s per M.

As for `COc1ccc(-c2cc(=O)[nH]c(=S)n2C[C@@H]2CCCNC2)c(OC)c1` [Example 151, 6-(2,4-dimethoxyphenyl)-1-[(3R)-piperidin-3-ylmethyl]-2-thioxo-2,3-dihydropyrimidin-4(1H)-one hydrochloride], the “MPO kinact/Ki” value was 3740 1/s per M.

On to `NCCCn1c(-c2cc3ccccc3s2)cc(=O)[nH]c1=S` [Example 71, 1-(3-aminopropyl)-6-(1-benzothien-2-yl)-2-thioxo-2,3-dihydropyrimidin-4(1H)-one hydrochloride], for which the “MPO kinact/Ki” value is reported as 3570 1/s per M. Still for that read-out and setting: as for `COc1ccc(-c2cc(=O)[nH]c(=S)n2CCCCCN)c(OC)c1` [Example 218, 1-(5-aminopentyl)-6-(2,4-dimethoxyphenyl)-2-thioxo-2,3-dihydropyrimidin-4(1H)-one hydrochloride], the figure is 14100 1/s per M. Regarding `COCCn1c(-c2ccc(F)cc2OC)cc(=O)[nH]c1=S` [Example 318, 6-(4-fluoro-2-methoxyphenyl)-1-(2-methoxyethyl)-2-thioxo-2,3-dihydropyrimidin-4(1H)-one], the “MPO kinact/Ki” value is 5240 1/s per M. On the same count and under the same terms, as for `COc1ccc(Cl)cc1-c1cc(=O)[nH]c(=S)n1C[C@@H](O)CN` [Example 113, 1-[(2S)-3-amino-2-hydroxypropyl]-6-(5-chloro-2-methoxyphenyl)-2-thioxo-2,3-dihydropyrimidin-4(1H)-one trifluoroacetate], the figure is 25900 1/s per M; as for `NCCCn1c(-c2ccccc2-n2nccn2)cc(=O)[nH]c1=S` [Example 98, 1-(3-aminopropyl)-2-thioxo-6-[2-(2H-1,2,3-triazol-2-yl)phenyl]-2,3-dihydropyrimidin-4(1H)-one hydrochloride], 1870 1/s per M. Same read-out and setting: as for `COc1ccc(-c2cc(=O)[nH]c(=S)n2CCNC(=O)CN)c(OC)c1` [Example 8, 2-amino-N-(2-(6-(2,4-dimethoxyphenyl)-4-oxo-2-thioxo-3,4-dihydropyrimidin-1(2H)-yl)ethyl)acetamide hydrochloride], the figure is 12100 1/s per M; as for `O=c1cc(-c2cc3ccccc3s2)n(CCO)c(=S)[nH]1` [Example 40, 6-(1-benzothien-2-yl)-1-(2-hydroxyethyl)-2-thioxo-2,3-dihydropyrimidin-4(1H)-one], 6430 1/s per M. On the same count and under the same terms, as for `COc1cc(-c2cc(=O)[nH]c(=S)n2CC(N)=O)c(OC)cc1C` [Example 147, 2-[6-(2,5-dimethoxy-4-methylphenyl)-4-oxo-2-thioxo-3,4-dihydropyrimidin-1(2H)-yl]acetamide], the figure is 6500 1/s per M; as for `COc1ccc(-c2cc(=O)[nH]c(=S)n2C(C)C(N)=O)c(OC)c1` (centres unmarked) [Example 188, 2-[6-(2,4-dimethoxyphenyl)-4-oxo-2-thioxo-3,4-dihydropyrimidin-1(2H)-yl]propanamide], 2180 1/s per M. In the case of `COc1ccc(-c2cc(=O)[nH]c(=S)n2C[C@@H](C)N)c(OC)c1` [Example 175, 1-[(2R)-2-aminopropyl]-6-(2,4-dimethoxyphenyl)-2-thioxo-2,3-dihydropyrimidin-4(1H)-one hydrochloride], the “MPO kinact/Ki” value is on record as 459 1/s per M.

`COc1cc(-c2cc(=O)[nH]c(=S)n2CCO)c(OC)cc1Cl` [Example 206, 6-(4-chloro-2,5-dimethoxyphenyl)-1-(2-hydroxyethyl)-2-thioxo-2,3-dihydropyrimidin-4(1H)-one]: the “MPO kinact/Ki” value is 7690 1/s per M. Still for that read-out and setting: for `COc1ccc(Cl)cc1-c1cc(=O)[nH]c(=S)n1CCCNC(N)=O` [Example 148, 1-{3-[6-(5-chloro-2-methoxyphenyl)-4-oxo-2-thioxo-3,4-dihydropyrimidin-1(2H)-yl]propyl}urea] the value was 6690 1/s per M.

The same assay, now with this note: Table 1A, 2 μM H2O2, pH 7.4.
On to `NC(=O)Cn1c(-c2ccccc2O)cc(=O)[nH]c1=S` [Example 368, 2-[6-(2-hydroxyphenyl)-4-oxo-2-thioxo-3,4-dihydropyrimidin-1(2H)-yl]acetamide], for which the “MPO kinact/Ki” value is on record as 3270 1/s per M. On the same count and under the same terms, as for `COc1ccc(F)cc1-c1cc(=O)[nH]c(=S)n1CCCNC(=N)N1CC(F)(F)C1` [Example 351, 3,3-Difluoro-N-{3-[6-(5-fluoro-2-methoxyphenyl)-4-oxo-2-thioxo-3,4-dihydropyrimidin-1(2H)-yl]propyl}azetidine-1-carboximidamide], the figure is 7870 1/s per M.

The record behind these values is US9399626B2, “2-thiopyrimidinones” (Pfizer Inc., priority 2011, dated 2016).
